Measured values published in ChEMBL document CHEMBL4616645, “Dysidealactams and Dysidealactones: Sesquiterpene Glycinyl-Lactams, Imides, and Lactones from a Dysidea sp. Marine Sponge Collected in Southern Australia” (J Nat Prod, 2020).
Activity calls are given as the source filed them.

Assays:
NCI-H460 = experiment: Cytotoxicity against human NCI-H460 cells assessed as reduction in cell viability up to 30 uM uM after 48 hrs by MTT assay; type: functional, cell-based
SW-620 = experiment: Cytotoxicity against human SW620 cells assessed as reduction in cell viability up to 30 uM after 48 hrs by MTT assay; type: functional, cell-based
Bacillus subtilis = experiment: Antibacterial activity against Bacillus subtilis ATCC 6051 assessed as reduction In microbial growth up to 30 uM after 24 hrs by spectrophotometric method; type: functional, organism-based
Escherichia coli = experiment: Antibacterial activity against Escherichia coli ATCC 11775 assessed as reduction In microbial growth up to 30 uM after 24 hrs by spectrophotometric method; type: functional, organism-based
Candida albicans = experiment: Antifungal activity against Candida albicans ATCC 10231 assessed as reduction In microbial growth up to 30 uM after 24 hrs by spectrophotometric method; type: functional, organism-based

Measured: Activity

CC1(C)CCC[C@]2(C)C3=C(CC[C@@H]12)CN(CC(=O)O)C3=O
inactive: all assays above

CC1(C)CCC[C@]2(C)C3=C(CC[C@@H]12)C(=O)N(CC(=O)O)[C@H]3O
inactive: all assays above

CC1(C)CCC[C@]2(C)C3=C(CC[C@@H]12)C(=O)OC3O (stereo not given in full)
inactive: all assays above

CC1(C)CCC[C@]2(C)C3=C(CC[C@@H]12)C(=O)N(CC(=O)O)[C@@H]3O
inactive: all assays above

CC1(C)CCC[C@]2(C)C3=C(CC[C@@H]12)C(=O)N(CC(=O)O)C3=O
inactive: all assays above

CC1(C)CCC[C@]2(C)C3=C(CC[C@@H]12)C(=O)NC3=O
inactive: all assays above

CCO[C@H]1C2=C(CC[C@H]3C(C)(C)CCC[C@]23C)C(=O)N1CC(=O)O
inactive: all assays above

CCO[C@@H]1C2=C(CC[C@H]3C(C)(C)CCC[C@]23C)C(=O)N1CC(=O)O
inactive: all assays above

CC1(C)CCC[C@]2(C)C3=C(CC[C@@H]12)C(O)OC3=O (stereo not given in full)
inactive: all assays above

CC1(C)CCC[C@]2(C)C3=C(CC[C@@H]12)C(=O)N(CC(=O)O)C3
inactive: all assays above
